test system: THP1 cells (LPS induced TNF release); test: Lipopolysaccharide-Activated THP1 Cell TNF Production Assay; format: cell-based; conditions: Homo sapiens, THP-1; THP1 cells, bacterial LPS, secreted TNF-α after 3 h at 37° C.; read-out: IC50 values in the THP1 cell assay (LPS induced TNF release)
Method: Lipopolysaccharide-Activated THP1 Cell TNF Production Assay
THP1 cells are resuspended in fresh THP1 media (RPMI 1640, 10% heat-inactivated FBS, 1×PGS, 1×NEAA, plus 30 μM βME) at a concentration of 1E6/mL. One hundred microliters of cells per well are plated in a polystyrene 96-well tissue culture. One microgram per mL of bacterial LPS is prepared in THP1 media and is transferred to the wells. Test compounds are dissolved in 100% DMSO and are serially diluted 3 fold in a polypropylene 96-well microtiter plate (drug plate). HI control and LO control wells contain only DMSO. One microliter of test compound from the drug plate followed by 10 μL of LPS are transferred to the cell plate. The treated cells are induced to synthesize and secrete TNF-α at 37° C. for 3 h. Forty microliters of conditioned media are transferred to a 96-well polypropylene plate containing 110 μL of ECL buffer (50 mM Tris-HCl pH 8.0, 100 mM NaCl, 0.05% Tween 20, 0.05% NaN3 and 1% FBS) supplemented with 0.44 nM MAB610 monoclonal Ab (R&D Systems), 0.34 nM ruthenylated AF210NA polyclonal Ab (R&D Systems) and 44 μg/mL sheep anti-mouse M280 Dynabeads (Dynal). After a 2 h incubation at RT with shaking, the reaction is read on the ECL M8 Instrument (IGEN Inc.). A low voltage is applied to the ruthenylated TNF-α immune complexes, which in the presence of TPA (the active component in Origlo), results in a cyclical redox reaction generating light at […]. The amount of secreted TNF-α in the presence of compound compared with that in the presence of DMSO vehicle alone (HI control) is calculated using the formula: % control (POC)=(cpd−average LO)/(average HI−average LO)*100. Data (consisting of POC and inhibitor concentration in μM) is fitted to a 4-parameter equation (y=A+((B−A)/(1+((×/C)ôD))), where A is the minimum y (POC) value, B is the maximum y (POC), C is the x (cpd concentration) at the point of inflection and D is the slope factor) using a Levenburg-Marquardt non-linear regression algorithm.

SMILES | IC50 [µM]
CN(c1ccnc(NCCc2cccnc2)n1)c1ccnc(-c2cc(F)ccc2F)n1 [Example 78, N^4-(2-(2,5-Difluorophenyl)pyrimidin-4-yl)-N^4-methyl-N^2-(2-(pyridin-3-yl)ethyl)-pyrimidine-2,4-diamine] | ≤ 20
C[C@@H](Cc1cccc(CN)c1)Nc1nccc(N(C)c2cc(-c3ccccc3)c(=O)n(C)c2)n1 [Example 178, (S)-5-((2-(1-(3-(Aminomethyl)phenyl)propan-2-ylamino)pyrimidin-4-yl)(methyl)-amino)-1-methyl-3-phenylpyridin-2(1H)-one] | ≤ 20
CNC(=O)c1cnc(-c2ccccc2)nc1Nc1ccnc(N[C@@H](C)Cc2cccc(CN)c2)n1 [(S)-4-(2-(1-(3-(aminomethyl)phenyl)-propan-2-ylamino)pyrimidin-4-ylamino)-N-methyl-2-phenylpyrimidine-5-carboxamide] | ≤ 20
CSc1nccc(Nc2cc(-c3ccccc3)c(=O)n(C)c2)n1 [1-methyl-5-((2-(methylsulfanyl)-4-pyrimidinyl)amino)-3-phenyl-2(1H)-pyridinone] | ≤ 20
CN(c1ccnc(NCCc2ccccn2)n1)c1ccnc(-c2ccccc2)n1 [Example 107, N^4-Methyl-N^4-(2-phenylpyrimidin-4-yl)-N^2-(2-(pyridin-2-yl)ethyl)pyrimidine-2,4-diamine] | ≤ 20
COc1ccccc1-c1cccc(N(C)c2ccnc(NCCc3ccccc3)n2)n1 [Example 142, N^4-(6-(2-Methoxyphenyl)pyridin-2-yl)-N^4-methyl-N^2-phenethylpyrimidine-2,4-diamine] | ≤ 20
COc1nc(-c2ccccc2)nc(N(C)c2ccnc(N[C@@H](C)Cc3cccc(CN)c3)n2)n1 [Example 121, (S)-N^2-(1-(3-(Aminomethyl)phenyl)propan-2-yl)-N^4-(4-methoxy-6-phenyl-1,3,5-triazin-2-yl)-N^4-methylpyrimidine-2,4-diamine] | ≤ 20
C[C@@H](Cc1cccc(CN)c1)Nc1nccc(N(C)c2c[nH]c(=O)c(-c3ccccc3)c2)n1 [Example 168, (S)-5-((2-(1-(3-(Aminomethyl)phenyl)propan-2-ylamino)pyrimidin-4-yl)(methyl)-amino)-3-phenylpyridin-2(1H)-one] | ≤ 20
COc1nc(-c2ccccc2)nc(N(C)c2ccnc(N[C@@H](C)Cc3cccc(CNC(=O)[C@H](C)N)c3)n2)n1 [Example 125, (S)-N-((S)-3-((S)-2-(4-((4-Methoxy-6-phenyl-1,3,5-triazin-2-yl)(methyl)amino)-pyrimidin-2-ylamino)propyl)benzyl)-2-aminopropanamide] | ≤ 20
C[C@@H](Cc1cccc(CN)c1)Nc1nccc(N(C)c2ccnc(-c3ccccc3)n2)n1 [Example 89, (S)-N^2-(1-(3-(Aminomethyl)phenyl)propan-2-yl)-N^4-methyl-N^4-(2-phenylpyrimidin-4-yl)pyrimidine-2,4-diamine] | ≤ 20
CN(c1ccnc(NC2CCN(C(=O)OC(C)(C)C)CC2)n1)c1cc(-c2ccccc2)cc(=O)n1C [Example 162, tert-Butyl 4-(4-(methyl(1-2-yl)amino)pyrimidin-2-ylamino)piperidine-1-carboxylate] | ≤ 20
CN(c1ccnc(NC[C@H](N)c2ccccc2)n1)c1ccnc(-c2ccccc2)n1 [Example 112] | ≤ 20
CN(c1ccnc(NCCc2ccccc2Cl)n1)c1nccc(C(C)(C)C)n1 [Example 55, N^2-(2-Chlorophenethyl)-N^4-(4-tert-butylpyrimidin-2-yl)-N^4-methylpyrimidine-2,4-diamine] | ≤ 20

Other lines, results leading:

IC50 [µM] | SMILES
≤ 20 | CN(c1ccnc(N[C@@H](CCN2CCOCC2)Cc2ccccc2)n1)c1ccnc(-c2ccccc2)n1 [Example 54, (R)-N^4-Methyl-N^2-(4-morpholino-1-phenylbutan-2-yl)-N^4-(2-phenylpyrimidin-4-yl)pyrimidine-2,4-diamine]
≤ 20 | CC(C)[C@H](CCN1CCOCC1)Nc1nccc(N(C)c2ccnc(-c3ccccc3)n2)n1 [Example 62, (S)-N^4-Methyl-N^2-(4-methyl-1-morpholinopentan-3-yl)-N^4-(2-phenylpyrimidin-4-yl)pyrimidine-2,4-diamine]
≤ 20 | CN(c1cccc(-c2ccc(Cl)cc2)n1)c1ccnc(NCCc2ccccc2)n1 [Example 134, N^4-(6-(4-Chlorophenyl)pyridin-2-yl)-N^4-methyl-N^2-phenethylpyrimidine-2,4-diamine]
≤ 20 | CNC(=O)NCc1cccc(C[C@H](C)Nc2nccc(Nc3nc(-c4ccccc4)ncc3C(=O)NC)n2)c1 [(S)-1-(3-(2-(4-(5-(Methylcarbamoyl)-2-phenylpyrimidin-4-ylamino)pyrimidin-2-ylamino)propyl)benzyl)-3-methylurea]
≤ 20 | C[C@@H](Cc1cccc(-n2ccnc2)c1)Nc1nccc(N(C)c2ccnc(-c3ccccc3)n2)n1 [Example 116, N^2-((S)-1-(3-(1 H-Imidazol-1-yl)phenyl)propan-2-yl)-N^4-methyl-N^4-(2-phenyl-pyrimidin-4-yl)pyrimidine-2,4-diamine]
≤ 20 | CC(Cc1cccc(CN)c1)Nc1nccc(N(C)c2cccc(-c3cccc(F)c3)n2)n1 (stereo not drawn) [Example 157, N^2-(1-(3-(Aminomethyl)phenyl)propan-2-yl)-N^4-(6-(3-fluorophenyl)pyridin-2-yl)-N^4-methylpyrimidine-2,4-diamine]
≤ 20 | CN(c1cncc(-c2ccccc2)n1)c1ccnc(NCCc2ccccc2Cl)n1 [Example 123, N^2-(2-Chlorophenethyl)-N^4-methyl-N^4-(6-phenylpyrazin-2-yl)pyrimidine-2,4-diamine]
≤ 20 | CC(C)NC[C@@H](Cc1ccccc1)Nc1nccc(N(C)c2ccnc(-c3ccccc3)n2)n1 [Example 49, (R)-N^2-(3-(Isopropylamino)-1-phenylpropan-2-yl)-N^4-methyl-N^4-(2-phenyl-pyrimidin-4-yl)pyrimidine-2,4-diamine]
≤ 20 | CN(c1cccc(-c2ccc(C(F)(F)F)cc2)n1)c1ccnc(NCCc2ccccc2)n1 [Example 128, N^4-Methyl-N^2-phenethyl-N^4-(6-(4-(trifluoromethyl)phenyl)pyridin-2-yl)-pyrimidine-2,4-diamine]
≤ 20 | CN(c1ccnc(N[C@H]2CC[C@H](N)CC2)n1)c1ccnc(-c2ccccc2)n1 [Example 13, N^2-((1r,4r)-4-Aminocyclohexyl)-N^4-methyl-N^4-(2-phenylpyrimidin-4-yl)pyrimidine-2,4-diamine]
≤ 20 | CN(c1cccc(-c2ccccc2)n1)c1ccnc(N[C@H]2CC[C@H](N)CC2)n1 [Example 153, N^2-((1s,4s)-4-aminocyclohexyl)-N^4-methyl-N^4-(6-phenylpyridin-2-yl)pyrimidine-2,4-diamine]
≤ 20 | C[C@@H](Cc1cccc(CN)c1)Nc1nccc(N(C)c2ccnc(-c3ccc(F)cc3)n2)n1 [Example 87, (S)-N^2-(1-(3-(Aminomethyl)phenyl)propan-2-yl)-N^4-(2-(4-fluorophenyl)pyrimidin-4-yl)-N^4-methylpyrimidine-2,4-diamine]
≤ 20 | CN(c1ccnc(NC(C)(C)CN)n1)c1ccnc(-c2ccccc2)n1 [Example 27, N^2-(1-Amino-2-methylpropan-2-yl)-N^4-methyl-N^4-(2-phenylpyrimidin-4-yl)-pyrimidine-2,4-diamine]
≤ 20 | COc1ccccc1-c1nccc(N(C)c2ccnc(NCCc3cccnc3)n2)n1 [Example 104, N^4-(2-(2-Methoxyphenyl)pyrimidin-4-yl)-N^4-methyl-N^2-(2-(pyridin-3-yl)ethyl)-pyrimidine-2,4-diamine]

— patent US20060069110A1, “Substituted heterocyclic compounds and methods of use” (priority 2004, published 2006)
